What was measured:
[1] = test system: TNF-α production; assay: In vitro inhibition of TNF-α production in human blood; type: cell-based; details: human whole blood, lipopolysaccharide stimulation
Description: (§1) Human Whole Blood Stimulation
(§2) Peripheral blood from healthy male donors was drawn into heparinized syringes (12.5 U heparin/ml). Blood samples were three-fold diluted in RMPI 1640 medium (Life Technologies, Belgium) supplemented with 2 mM L-glutamine, 100 U/ml penicillin and 100 μg/ml streptomycin, and 300 μl fractions were distributed in 24-well multidisc plates (Nunc, Roskilde, Denmark). Blood samples were preincubated (60 minutes at 37° C.) in a humidified 6% CO2-atmosphere with 100 A1 of drug solvent (final concentration 0.02% dimethylsulfoxide in RPMI 1640) or with 100 μl of an appropriate dose of test compound before being stimulated by the addition of 100 μl of lipopolysaccharide at a final concentration of 100 ng/ml. After 6 hours, cell-free supernatant fluids were collected by centrifugation and stored at −20° C. until tested for the presence of TNF-α.
(§3) Cytokine protein concentrations were determined by sandwich ELISA as described in Van Wauwe et al. (1996, Inflamm Res, 45, 357–363). Murine monoclonals used as capture antibodies to human cytokines were obtained from R&D Systems (Abingdon, United Kingdom) and code named MAB210 and MAB611 for TNF-α and IL-12 respectively. Butinylated goat polyclonal antibodies used to detect human cytokines were from R&D Systems (BAF210, BAF219). Cytokine levels were calculated from standard curves using recombinant cytokines supplied by R&D Systems.

[2] = test system: IL-12 production; assay: In vitro inhibition of IL-12 production in human blood; type: cell-based; details: human whole blood, lipopolysaccharide 100 ng/ml, 24 hours
Description: as §1
as §2, with “100 μl” for “100 A1”, “After 24” for “After 6”, “of IL-12.” for “of TNF-α.”
as §3

SMILES	% inhib. TNF-α ([1]; test dose 1 × 10^−6 M) [%]	% inhib. TNF-α ([1]; test dose 1 × 10^−7 M) [%]	% inhib. IL-12 (p40) ([2]; test dose 1 × 10^−6 M) [%]	% inhib. IL-12 (p40) ([2]; test dose 1 × 10^−7 M) [%]
Cl.Cl.Clc1cccc(Nc2nc(-c3c[nH]c4ncccc34)cs2)c1Cl [Compound 166]	48	37	62	55
Cl.c1ccn2c(-c3csc(Nc4ccc5c(c4)CCO5)n3)cnc2c1 [compound 579]	49	50	72	75
Br.FC(F)(F)c1cccc(Nc2nc(-c3cnc4ccccn34)cs2)c1 [Compound 81]	51	47	65	67
Cc1ccc(Nc2nc(-c3cnc4ccccn34)cs2)cc1.Cl [Compound 39]	53	59	64	71
Cl.Clc1cccc(Nc2nc(-c3ncc4ccccn34)cs2)c1Cl [compound 410]	39	43	53	58
Br.FC(F)(F)c1cccc(Nc2nc(-c3cccnc3)cs2)c1 [compound 101]	54	53	62	65
Br.Cc1ccc(Nc2nc(-c3cnc4ncccn34)cs2)cc1Cl [compound 286]	50	48	60	63
Cc1ccc(Nc2nc(-c3cnc4ccccn34)cs2)cc1Cl.Cl [Compound 476]	58	53	75	71
COc1ccc(Nc2nc(-c3cnc4ccccn34)cs2)cn1 [compound 573]	53	45	67	61
Cl.Fc1cccc(-c2csc(Nc3cccc(C(F)(F)F)c3)n2)c1 [Compound 643]	64	59	75	72
FC(F)(F)c1cccc(Nc2nc(-c3cncnc3)cs2)c1 [compound 517]	61	57	74	68
Cl.c1ccc(Nc2nc(-c3c[nH]c4ccccc34)cs2)cc1 [Compound 9]	37	39	49	53
Cl.Clc1cccc(Nc2nc(-c3cnc4ccccn34)cs2)c1Cl.O [Compound 45]	49	48	64	65
Cc1ccc(Nc2nc(-c3cnc4ccccn34)cs2)cn1.Cl.Cl.O.O [compound 577]	50	49	77	71
Cl.FC(F)(F)c1cncc(Nc2nc(-c3cnc4ccccn34)cs2)c1 [compound 584]	53	49	75	68
Cl.FC(F)(F)c1cccc(Nc2nc(-c3ccoc3)cs2)c1 [compound 518]	38	44	62	59
Br.COc1ccc(Nc2nc(-c3cnc4ccccn34)cs2)cc1 [Compound 74]	56	48	70	67
Cc1cccc(Nc2nc(-c3cnc4ccccn34)cs2)c1.Cl [Compound 31]	55	49	66	68
Br.Cc1cccc(Nc2nc(-c3cnc4cnccn34)cs2)c1.O [compound 115]	58	53	75	67
Br.Cc1ncc(-c2csc(Nc3ccc(Cl)nc3)n2)n1C [Compound 527]	37	43	61	66
Cl.c1ccn2c(-c3csc(Nc4ccc5ncsc5c4)n3)cnc2c1 [compound 587]	56	56	79	75
Br.Cc1cccc(Nc2nc(-c3cnn4ccccc34)cs2)c1 [compound 119]	49	49	62	62
Brc1cccc(Nc2nc(-c3cnc4ccccn34)cs2)c1 [Compound 466]	57	49	95	86
Br.FC(F)(F)c1cccc(Nc2nc(-c3cnc4ccccc4c3)cs2)c1.O [compound 100]	43	41	53	51
Cl.FC(F)(F)c1cccc(Nc2nc(-c3cnc4sccn34)cs2)c1 [compound 549]	50	47	74	71
Brc1ccc(Nc2nc(-c3cnc4ccccn34)cs2)cc1.Cl [Compound 509]	46	54	64	68
Cl.Clc1cccc(Nc2nc(-c3cnc4sccn34)cs2)c1Cl [compound 551]	44	40	71	71
